According to the supplement of paper PMC10920090:

Legend:
[1] = tested on: MDA-MB-231; experiment: drug sensitivity score (DSS), cell viability CellTiter-Glo; higher = more sensitive; extreme values may be limits of the assay; conditions: 72 h
[2] = tested on: MDA-MB-231; experiment: drug sensitivity score (DSS), cytotoxicity CellTox Green; higher = more cytotoxic; extreme values may be limits of the assay; conditions: 72 h
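Wherever drug sensitivity score (DSS), cytotoxicity CellTox Green is given: DSS summarises each dose–response curve by combining IC50, EC50, maximal inhibition and efficacy across drug concentrations.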

Row | Structure (SMILES) | drug sensitivity score ([1]; shRNA: shPPFIA1_1) [DSS] | drug sensitivity score ([1]; shRNA: shScramble) [DSS] | drug sensitivity score ([2]; shRNA: shPPFIA1_1) [DSS] | drug sensitivity score ([2]; shRNA: shScramble) [DSS]
1 | CCN(CC)Cc1ccc2cc(COC(=O)Nc3ccc(C(=O)NO)cc3)ccc2c1 [Givinostat] | 0.9 | 4 | 2.4 | 3.4
2 | Cc1c(N)nc([C@H](CC(N)=O)NC[C@H](N)C(N)=O)nc1C(=O)N[C@H](C(=O)N[C@H](C)[C@@H](O)[C@H](C)C(=O)N[C@H](C(=O)NCCc1nc(-c2nc(C(=O)NCCC[S+](C)C)cs2)cs1)[C@@H](C)O)[C@@H](OC1OC(CO)C(O)C(O)C1OC1OC(CO)C(O)C(OC(N)=O)C1O)c1cnc[nH]1 (stereo partly specified) [Bleomycin] | 0 | 3.5 | 0.1 | 0
3 | O=C(Nc1c[nH]nc1-c1nc2ccc(CN3CCOCC3)cc2[nH]1)NC1CC1 [AT9283] | 0 | 0.5 | 0.2 | 0.8
4 | CN(C)C1CCN(C(=O)c2ccc(NC(=O)Nc3ccc(-c4nc(N5CCOCC5)nc(N5CCOCC5)n4)cc3)cc2)CC1 [Gedatolisib] | 7.2 | 20.8 | 0 | 0
5 | O=C(Nc1cccc(C(F)(F)F)c1)Nc1cc(S(=O)(=O)NC2CC2)ccc1-c1ccsc1 [AGI-6780] | 0 | 0 | 0.5 | 0
6 | CNc1ncc2cc(-c3cc(NC(=O)NCCC(C)(C)C)c(F)cc3C)c(C)nc2n1 | 0.6 | 14.8 | 21.9 | 19.4
7 | CC(=O)O[C@]1(C(C)=O)CC[C@H]2[C@@H]3C=C(C)C4=CC(=O)CC[C@]4(C)[C@H]3CC[C@@]21C [Megestrol acetate] | 0 | 0 | 0 | 0
8 | COc1cccc2c1C(=O)c1c(O)c3c(c(O)c1C2=O)C[C@@](O)(/C(CO)=N/NC(=O)CCCCCN1C(=O)C=CC1=O)C[C@@H]3O[C@H]1C[C@H](N)[C@H](O)[C@H](C)O1 [Aldoxorubicin] | 1.2 | 7.3 | 0 | 0
9 | C=CC[C@@H]1/C=C(\C)C[C@H](C)C[C@H](OC)[C@H]2O[C@@](O)(C(=O)C(=O)N3CCCC[C@H]3C(=O)O[C@H](/C(C)=C/[C@@H]3CC[C@@H](O)[C@H](OC)C3)[C@H](C)[C@@H](O)CC1=O)[C@H](C)C[C@@H]2OC [Tacrolimus] | 0 | 0 | 0 | 0
10 | COc1cccc2c1c(O)c(C(=O)N(C)c1ccc(C(F)(F)F)cc1)c(=O)n2C [Tasquinimod] | 0 | 3.4 | 0 | 0
11 | COc1cc2ncnc(Oc3cccc(NC(=O)Nc4cc(C(C)(C)C(F)(F)F)on4)c3)c2cc1OC | 0 | 7.7 | 4 | 7.8
12 | Cn1c(CCCC(=O)O)nc2cc(N(CCCl)CCCl)ccc21 [Bendamustine] | 0 | 0 | 0 | 0
13 | Nc1nc(NC2CC2)cc(-c2cccc(Cl)c2Cl)n1 [TH588] | 0.9 | 0.8 | 0.6 | 0.5
14 | N#CC[C@H](C1CCCC1)n1cc(-c2ncnc3[nH]ccc23)cn1 [Ruxolitinib] | 0.6 | 2.1 | 0 | 0
15 | CCCCCOC(=O)Nc1nc(=O)n([C@@H]2O[C@H](C)[C@@H](O)[C@H]2O)cc1F [Capecitabine] | 0 | 0 | 0 | 0
16 | Cc1cc(Nc2cc(CN3CCOCC3)c3nc(C)c(Cc4ccc(Cl)cc4F)n3n2)n[nH]1 [Gandotinib] | 1.6 | 4.4 | 2.1 | 1.7
17 | O=C(O)c1ccc(O)c2ncccc12 [IOX-1] | 0 | 0 | 0 | 0
18 | O=C(Nc1cccc(NC(=O)c2cccc(O)c2O)c1)c1cccc(O)c1O [MST-312] | 8.6 | 7.6 | 0 | 0
19 | COC(=O)c1ccc2c(c1)[nH]c1ncnc(NCCCN3CCCCC3)c12 [UM729] | 0 | 0 | 0 | 0
20 | NC(=O)c1cccc2cn(-c3ccc([C@@H]4CCCNC4)cc3)nc12 [Niraparib] | 2.8 | 1.9 | 0 | 0
21 | CCN(CC)CCCC(C)Nc1c2ccc(Cl)cc2nc2ccc(OC)cc12 (stereo unspecified) [Mepacrine] | 18.6 | 21.1 | 18.5 | 18.6
22 | Nc1cccc2c1CN(C1CCC(=O)NC1=O)C2=O (stereo unspecified) [Lenalidomide] | 0 | 0 | 0 | 0
23 | CC[C@@H]1C(=O)N(C)c2cnc(Nc3ccc(C(=O)NC4CCN(C)CC4)cc3OC)nc2N1C1CCCC1 [BI 2536] | 0 | 11.3 | 0.3 | 0
24 | CC(C)Cn1cnc2c(N)nc3ccccc3c21 [Imiquimod] | 0 | 2.7 | 0.9 | 0
